According to patent publication US9120749B2, “Quinoline derivatives and MELK inhibitors containing the same” (ONCOTHERAPY SCIENCE, INC., priority 2010, dated 2015):

What was measured:
HT-1197 cells = test: Cell-based assay: anti-proliferative activity, Cell Counting Kit-8, 72 hours (HT-1197, negative control without MELK expression); details: Homo sapiens, HT1197, 72 h, HT1197 cells, no MELK expression (negative control); Cell Counting Kit-8 at 72 hours
Summary of the method: (§1)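 Proliferation read with Cell Counting Kit-8 after 72 hours of inhibitor treatment, from seeding of 2,000–3,000 cells/well. Lines: T47D, A549, BT-549; HT-1197, lacking MELK by western blot, served as negative control. IC50 derived.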

T47D cells = test: Cell-based assay: anti-proliferative activity, Cell Counting Kit-8, 72 hours (T47D); details: Homo sapiens, T47D, 72 h, MELK-expressing, Cell Counting Kit-8 at 72 hours
Summary of the method: as §1

A549 cells = test: Cell-based assay: anti-proliferative activity, Cell Counting Kit-8, 72 hours (A549); details: Homo sapiens, A549, 72 h, MELK-expressing, Cell Counting Kit-8 at 72 hours
Summary of the method: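 A549 cells seeded in 96-well plates and exposed to candidate inhibitors for 72 hours. Growth measured with Cell Counting Kit-8; IC50 values calculated from the dose response.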

BT-549 cells = test: Cell-based assay: anti-proliferative activity, Cell Counting Kit-8, 72 hours (BT-549); details: Homo sapiens, BT-549, 72 h, BT549 cells, MELK-expressing; Cell Counting Kit-8 at 72 hours
Summary of the method: as §1

MELK = MELK (Homo sapiens, UniProt Q14680); test: Kinase assay: MELK activity, phosphorylation of FITC-labeled histone H3 peptide measured by IMAP fluorescence polarization; type: biochemical; details: 50 micro-M ATP, FITC-labeled histone H3 peptide substrate, IMAP fluorescence polarization; read-out: IC50 (μM) (kinase assay)
Summary of the method: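 Fluorescence polarization was measured 0.5 h (room temperature) after quenching with threefold volume of progressive binding solution. Test compounds from 12.5 mM DMSO stocks were assayed at 1% DMSO.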

Chain of MELK (Q14680 whole entry, looked up): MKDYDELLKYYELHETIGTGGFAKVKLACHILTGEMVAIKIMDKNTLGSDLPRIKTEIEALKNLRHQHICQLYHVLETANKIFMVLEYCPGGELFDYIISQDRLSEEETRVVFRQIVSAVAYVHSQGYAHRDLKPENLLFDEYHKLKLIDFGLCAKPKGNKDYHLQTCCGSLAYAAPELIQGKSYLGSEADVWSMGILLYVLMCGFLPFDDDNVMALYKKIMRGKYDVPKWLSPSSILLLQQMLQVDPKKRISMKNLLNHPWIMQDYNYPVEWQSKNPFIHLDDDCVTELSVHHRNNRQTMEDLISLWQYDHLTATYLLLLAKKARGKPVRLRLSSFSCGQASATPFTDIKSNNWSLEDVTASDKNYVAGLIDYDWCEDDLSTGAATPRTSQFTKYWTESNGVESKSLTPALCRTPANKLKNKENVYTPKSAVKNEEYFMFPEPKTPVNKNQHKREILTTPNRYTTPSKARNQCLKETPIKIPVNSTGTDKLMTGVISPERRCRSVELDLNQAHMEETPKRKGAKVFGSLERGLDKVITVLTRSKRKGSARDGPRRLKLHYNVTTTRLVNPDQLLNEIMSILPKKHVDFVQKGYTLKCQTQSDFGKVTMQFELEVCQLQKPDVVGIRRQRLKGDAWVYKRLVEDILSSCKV

Row | SMILES | IC50 (HT-1197 cells) [µM] | IC50 (T47D cells) [µM] | IC50 (A549 cells) [µM] | IC50 (BT-549 cells) [µM] | IC50 (MELK) [µM]
1 | CC(C)C(=O)c1cnc2ccc(-c3ccc(O)c(Cl)c3)cc2c1N1CCC(CN2CCCC2)CC1 [Example 318, 1-{6-(3-Chloro-4-hydroxyphenyl)-4-[4-(pyrrolidin-1-ylmethyl)piperidin-1-yl]quinolin-3-yl}-2-methylpropan-1-one] | 1.4 | 0.92 | 0.87 | 1.8 | 0.02
2 | COc1cc(-c2ccc3ncc(C(C)=O)c(N4CCC(CN5CCCC5)CC4)c3c2)cc(Cl)c1O [Example 321, 1-{6-(3-Chloro-4-hydroxy-5-methoxyphenyl)-4-[4-(pyrrolidin-1-ylmethyl)piperidin-1-yl]quinolin-3-yl}ethanone] | 5.1 | 0.19 | 0.18 | 0.29 | 0.0027
3 | CC(C)C(=O)c1cnc2ccc(-c3cc(F)c(O)c(Cl)c3)cc2c1N1CCC(CN2CCCC2)CC1 [Example 323, 1-{6-(3-Chloro-5-fluoro-4-hydroxyphenyl)-4-[4-(pyrrolidin-1-ylmethyl)piperidin-1-yl]quinolin-3-yl}-2-methylpropan-1-one] | 1.2 | 0.63 | 0.87 | 1.5 | 0.013
4 | CN(C)[C@H]1CC[C@H](CNc2c(C(=O)C3CC3)cnc3ccc(-c4cc(Cl)c(O)c(Cl)c4)cc23)CC1 [Example 325, Cyclopropyl[6-(3,5-dichloro-4-hydroxyphenyl)-4-{[trans-4-(dimethylamino)cyclohexyl]methylamino}quinolin-3-yl]methanone] | 10 | 0.78 | 0.62 | 1.9 | 0.011
5 | CN(C)[C@H]1CC[C@H](CNc2c(C(=O)C3CC3)cnc3ccc(-c4cc(F)c(O)c(Cl)c4)cc23)CC1 [Example 327] | 3 | 0.48 | 0.42 | 1 | 0.0055
6 | O=C(c1cnc2ccc(-c3ccc(O)c(Cl)c3)cc2c1N1CCC(CN2CCOCC2)CC1)C1CC1 [Example 332, {6-(3-Chloro-4-hydroxyphenyl)-4-[4-(morpholinomethyl)piperidin-1-yl]quinolin-3-yl}(cyclopropyl)methanone] | 10 | 0.67 | 0.55 | 1.5 | 0.035
7 | COc1cc(-c2ccc3ncc(C(=O)C4CC4)c(N4CCC(CN5CCOCC5)CC4)c3c2)cc(Cl)c1O [Example 334, {6-(3-Chloro-4-hydroxy-5-methoxyphenyl)-4-[4-(morpholinomethyl)piperidin-1-yl]quinolin-3-yl}(cyclopropyl)methanone] | 4.8 | 0.55 | 0.41 | 0.77 | 0.0081
8 | CCN(CC)C1CCC(Nc2c(C(C)=O)cnc3ccc(-c4ccc(O)c(Cl)c4)cc23)CC1 (centres unmarked) [Example 335, 1-{6-(3-Chloro-4-hydroxyphenyl)-4-[4-(diethylamino)cyclohexylamino]quinolin-3-yl}ethanone] | 1.2 | 0.1 | 0.29 | 0.65 | 0.021
9 | CC(=O)c1cnc2ccc(-c3cc(F)c(O)c(Cl)c3)cc2c1N1CCC(CN2CCCC2)CC1 [Example 336, 1-{6-(3-Chloro-5-fluoro-4-hydroxyphenyl)-4-[4-(pyrrolidin-1-ylmethyl)piperidin-1-yl]quinolin-3-yl}ethanone] | 5 | 0.33 | 0.8 | 0.85 | 0.0069
10 | COc1cc(-c2ccc3ncc(C(=O)C4CC4)c(Nc4ccc(CN(C)C)cc4)c3c2)cc(Cl)c1O [Example 339] | 1.9 | 0.15 | 0.19 | 0.49 | 0.004
